Measurements published in PubChem BioAssay (NCI).
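Five concentrations, 48 hours, 96-well plates. GI50 = concentration required for 50% inhibition of growth. TGI: concentration producing complete growth inhibition.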

How the values were obtained:
Assay in all cases: inhibition of tumour cell growth, NCI panel, 48 h
[1] = tested on: UACC-62 melanoma
[2] = tested on: T-47D breast
[3] = tested on: RPMI-8226 leukemia
[4] = tested on: NCI-H522 lung
[5] = tested on: RXF 393 renal
[6] = tested on: SN12C renal
[7] = tested on: HL-60(TB) leukemia
[8] = tested on: MOLT-4 leukemia
[9] = tested on: SK-MEL-28 melanoma
[10] = tested on: CCRF-CEM leukemia

In the case of `O=C(NCCCCNCCCNC(=O)c1ccccc1)c1ccccc1`, the TGI [1] is reported as > 100 µM, the TGI [2] is reported as > 100 µM and the TGI [3] is reported as > 100 µM. For the same compound, the TGI [4] was > 100 µM, the TGI [5] was > 100 µM and the TGI [6] was > 100 µM. For the same compound, the TGI [7] was > 100 µM, the TGI [8] was > 100 µM and the TGI [9] was > 100 µM. The TGI [10] was > 100 µM.
For `S=C1C(=Nc2ccccc2)N(c2ccccc2)/C(=N\c2ccccn2)N1c1ccccc1`, the TGI [1] was 17.1 µM, the TGI [2] was 41.5 µM and the TGI [3] was > 100 µM. It also gave a TGI [4] of 3.59 µM, a TGI [5] of 22.4 µM and a TGI [6] of 24 µM. The TGI [7] was > 100 µM, the TGI [8] was > 100 µM and the TGI [9] was 30.5 µM. The TGI [10] was > 100 µM.
For `CC(=Nc1c2ccccc2nc2ccccc12)N(C)C`, the TGI [1] was 32.9 µM, the TGI [2] was 54.5 µM and the TGI [3] was 38.2 µM. It also gave a TGI [4] of 25.5 µM, a TGI [5] of 78.1 µM and a TGI [7] of 24 µM. For the same compound, the TGI [8] was 44.8 µM, the TGI [9] was 61.5 µM and the TGI [10] was > 100 µM.
In the case of `Cc1nccn1S(=O)(=O)c1ccc(Br)cc1Br`, the TGI [1] is reported as > 100 µM, the TGI [2] is reported as > 100 µM and the TGI [3] is reported as 47.4 µM. The TGI [4] was 86.9 µM, the TGI [5] was 76.3 µM and the TGI [6] was > 100 µM. The TGI [7] was 51.5 µM, the TGI [8] was 96.1 µM and the TGI [9] was > 100 µM. The TGI [10] was 98.3 µM.
`Cc1cccc2nc3cccc(C(=O)NCCC[N+](C)(CCCNC(=O)c4cccc5nc6cccc(C)c6nc45)Cc4c([N+](=O)[O-])ncn4C)c3nc12` was tested, and the GI50 [1] was 38.8 µM, the TGI [1] was > 1100 µM and the TGI [2] was > 1100 µM. For the same compound, the TGI [3] was 0.521 µM, the GI50 [4] was 16.2 µM and the TGI [4] was > 1100 µM. For the same compound, the GI50 [5] was 339 µM, the TGI [5] was > 1100 µM and the GI50 [6] was 150 µM. For the same compound, the TGI [6] was > 1100 µM, the GI50 [7] was 48.6 µM and the GI50 [8] was 8.38 µM. For the same compound, the GI50 [9] was 403 µM, the TGI [9] was > 1100 µM and the TGI [10] was > 1100 µM.
`C1#Cc2ccccc2OCCOc2ccccc2C#Cc2ccccc2OCCOc2ccccc21` was tested, and the TGI [1] was > 100 µM, the TGI [2] was > 100 µM and the TGI [3] was 42.4 µM. For the same compound, the TGI [4] was 49.8 µM, the TGI [5] was 35.4 µM and the TGI [6] was > 100 µM. For the same compound, the TGI [7] was > 100 µM, the TGI [8] was 31.3 µM and the TGI [9] was > 100 µM. For the same compound, the TGI [10] was 36.3 µM.
In the case of `COC(=O)/C=C\C(C#N)(C#N)N=Cc1ccc(C)s1`, the TGI [1] is reported as 31 µM, the TGI [2] is reported as 3.92 µM and the TGI [3] is reported as > 32.5 µM. It also gave a TGI [4] of 2.01 µM, a TGI [5] of 3.42 µM and a TGI [6] of 5.91 µM. The TGI [7] was 5.16 µM, the TGI [8] was 5.82 µM and the TGI [9] was 9.64 µM. It also gave a TGI [10] of 1.64 µM.
Work on `Cc1cc(Nc2ccc(N=Nc3ccc(O)c4ncccc34)cc2)nc(C)n1` yielded a TGI [1] of 24.6 µM, a TGI [2] of 35.6 µM and a TGI [3] of 32.5 µM. The TGI [4] was 55 µM, the TGI [5] was 34.6 µM and the TGI [6] was > 88.2 µM. The TGI [7] was 16.5 µM, the TGI [8] was 48.3 µM and the TGI [9] was > 68.7 µM. For the same compound, the TGI [10] was 7.22 µM.
With `CC(NC1=NCCO1)c1cccc([N+](=O)[O-])c1` (centres undefined) the TGI [1] was > 100 µM, the TGI [2] was > 100 µM and the TGI [3] was > 100 µM. For the same compound, the TGI [4] was > 100 µM, the TGI [5] was > 100 µM and the TGI [6] was > 100 µM. For the same compound, the TGI [7] was > 100 µM, the TGI [8] was > 100 µM and the TGI [9] was > 100 µM. The TGI [10] was > 100 µM.
With `Nc1ccc(-c2nc3cc(F)ccc3s2)cc1I` the TGI [1] was 85.8 µM, the TGI [2] was 97.2 µM and the TGI [3] was > 100 µM. The TGI [4] was 33.2 µM, the TGI [5] was 31.3 µM and the TGI [6] was > 69.8 µM. The TGI [7] was > 100 µM, the TGI [8] was > 100 µM and the TGI [9] was > 100 µM. For the same compound, the TGI [10] was > 100 µM.
For `Cc1cc(=O)n2nc(CSc3nnc(N)s3)sc2n1`, the TGI [1] was > 100 µM, the TGI [2] was > 100 µM and the TGI [3] was > 100 µM. The TGI [4] was > 100 µM, the TGI [5] was > 100 µM and the TGI [6] was > 100 µM. The TGI [7] was > 100 µM, the TGI [8] was > 100 µM and the TGI [9] was > 100 µM. For the same compound, the TGI [10] was > 100 µM.
`C=CCN(c1cc(OCc2ccccc2)c(NC(C)=O)cc1[N+](=O)[O-])S(C)(=O)=O` was tested, and the TGI [1] was > 100 µM, the TGI [2] was > 100 µM and the TGI [3] was > 100 µM. The TGI [4] was > 100 µM, the TGI [5] was 40.3 µM and the TGI [6] was > 100 µM. For the same compound, the TGI [7] was > 100 µM, the TGI [8] was > 100 µM and the TGI [9] was > 100 µM. The TGI [10] was > 100 µM.
For `Cc1ccc(S(=O)(=O)NC(=O)NCCC(=O)O)cc1`, the TGI [1] was > 100 µM, the TGI [2] was > 100 µM and the TGI [3] was > 100 µM. For the same compound, the TGI [4] was > 100 µM, the TGI [5] was > 100 µM and the TGI [6] was > 100 µM. The TGI [7] was > 100 µM, the TGI [8] was > 100 µM and the TGI [9] was > 100 µM. For the same compound, the TGI [10] was > 100 µM.
With `Nc1ccccc1NC(=O)CCCCCCC(=O)Nc1ccc2c(c1)/C(=C/c1ccc[nH]1)C(=O)N2` the GI50 [1] was > 100 µM, the TGI [1] was > 100 µM and the GI50 [2] was 3.67 µM. For the same compound, the TGI [2] was > 100 µM, the GI50 [3] was 2.47 µM and the TGI [3] was > 100 µM. For the same compound, the GI50 [4] was 2.78 µM, the TGI [4] was > 100 µM and the GI50 [5] was > 100 µM. For the same compound, the TGI [5] was > 100 µM, the GI50 [6] was 4.68 µM and the TGI [6] was > 100 µM. For the same compound, the GI50 [7] was 1.8 µM, the TGI [7] was > 100 µM and the GI50 [8] was 2.9 µM. The TGI [8] was > 100 µM, the GI50 [9] was > 100 µM and the TGI [9] was > 100 µM. The GI50 [10] was 0.419 µM and the TGI [10] was > 100 µM.
For `CCOC(=O)C1=C(C)C(C(=O)OC)/C(=C/c2cccc3cccnc23)C1=O` (centres undefined), the TGI [1] was > 10 µM, the TGI [2] was > 10 µM and the TGI [3] was > 10 µM. For the same compound, the TGI [4] was > 10 µM, the TGI [5] was > 10 µM and the TGI [6] was > 10 µM. The TGI [7] was > 10 µM, the TGI [8] was > 10 µM and the TGI [9] was > 10 µM. For the same compound, the TGI [10] was > 10 µM.
For `N#Cc1c(N2CCCC2)ncn(Cc2ccccc2)c1=S`, the TGI [1] was > 100 µM, the TGI [2] was > 100 µM and the TGI [3] was > 100 µM. For the same compound, the TGI [4] was > 100 µM, the TGI [5] was > 100 µM and the TGI [6] was > 100 µM. The TGI [7] was > 100 µM, the TGI [8] was > 100 µM and the TGI [9] was > 100 µM. For the same compound, the TGI [10] was > 100 µM.
